Data published in PubChem BioAssay AID2060903 (Molecular Pharmacology Branch, DTP, NCI, 2025).
pIC50: −log10 of the molar value.

Tested on: 377384-186-R-J1-PDC complex spheroid viability
Assay: Anticancer human tumor 377384-186-R-J1-PDC patient-derived pancreatic carcinoma cell line growth inhibition [RAS]
Conditions: for pIC50: curve of first compound; for viability, T/C: stronger effect = lower value
Excerpt: RAS pathway inhibitors in Combinations in Complex Spheroids
A high-throughput screen of multi-cell type tumor spheroids was designed to identify active combinations of RAS pathway inhibitors and targeted small molecules. Complex spheroids include a stromal component modeled by human endothelial cells (HUVEC) and fibroblasts modeled by human mesenchymal stem cells (MSCs). The concentration ranges selected for each drug and investigational agent were based upon clinically achievable concentrations if the clinical Cmax of the agent was known.
Compounds. The drugs and investigational agents: abemaciclib (NSC768073), cobimetinib (NSC768068), divarasib (GDC6063, NSC841802), docetaxel (NSC628503), GDC-1971 (RLY-1971, NSC841576), gemcitabine (NSC613327), inavolisib (NSC800729), ipatasertib (NSC767898), KB-0742 (NSC834161), MRTX-1133 (NSC836407), osimertinib (NSC779217), RMC-4630 (NSC839698), RMC-6236 (NSC851965), RMC-6291 (NSC852671), Ro-3306 (NSC812927), sapanisertib (NSC764658), SN-38 (NSC673596), staurosporine (NSC755774), SY5609 (NSC837396), and tovorafenib (DAY101, NSC766906), were obtained from the National Cancer Institute (NCI) Developmental Therapeutics Program Chemical Repository. The FDA-approved anticancer drug set is available from the NCI Developmental Therapeutics Program. […] The stock solutions were prepared in dimethyl sulfoxide (DMSO, Sigma-Aldrich, St. Louis, MO, cat. D2650) at 800-fold the tested concentration and stored at -70 degrees C prior to their use. All drugs and investigational agents were tested over a range starting from a high concentration at or near the clinical Cmax and decreasing in half-log increments. If the clinical Cmax for an agent had not been determined, the highest concentration tested was 10 microM.
Cell Culture. All cells were maintained in an incubator at 37 degrees C and 5% CO2 with 95% humidity. The PDC lines were cultured according to standard operating procedures established by the NCI PDMR. All PDCs were thawed and cultured in Matrigel-coated flasks prepared with a working solution of 1X Ham's F-12 nutrient mix, without supplementation (Invitrogen, Waltham, MA, cat. 11765054), 100 U/mL penicillin-streptomycin (Invitrogen, cat. 15140122), and 2.5% Matrigel (Corning Inc., Corning, NY, cat. 354248) for the first three passages. The 362531-283-R-J2-PDC and 782815-120-R-J1-PDC lines were cultured in 6C/Colon 1B media, which includes advanced DMEM/F-12 (Thermo Fisher Scientific, cat. 12634028), 10 mM HEPES (Thermo Fisher Scientific, cat. 15630080), 1X GlutaMAX supplement (Thermo Fisher Scientific, cat. 35050061), 0.1 mg/mL primocin (InvivoGen, San Diego, CA, cat. ant-pm-2), 10% defined fetal bovine serum, heat inactivated (HyClone Laboratories Inc., Logan, UT, cat. SH30070.03HI), 50% L-WRN conditioned media (ATCC, cat. CRL-3276), 1.25 mM N-Acetyl-L-cysteine (Sigma-Aldrich, cat. A9165), 10 mM nicotinamide (Sigma-Aldrich, cat. N0636), 1X B-27 supplement (Thermo Fisher Scientific, cat. 17504044), 1X N-2 supplement (Thermo Fisher Scientific, cat. 17502048), 50 ng/mL human EGF (Thermo Fisher Scientific, cat. PHG0311), and 10 microM Y-27632 dihydrochloride (Tocris Bioscience, cat. 1254). The K12877-001-R-J1-PDC line was cultured in 6I media, which includes all 6C/Colon 1B media plus 10 ng/mL human FGF-10 (PeproTech, cat. 100-26), 1 ng/mL human FGF-2 (PeproTech, cat. 100-18B), 1 µM prostaglandin E2 (Tocris Bioscience, cat. 2296), […] hydrocortisone (Sigma-Aldrich, cat. H4001), and […] bovine insulin (Sigma-Aldrich, cat. I6634). The K86415-001-R-J1-PDC line was cultured in 6D media, which includes all 6C/Colon 1B media components minus the L-WRN conditioned media. The 485176-168-R4-J1-PDC was cultured in PANC media, which includes all 6C/Colon 1B media plus 100 ng/mL human FGF-10 (PeproTech, cat. 100-26), 500 nM SB-431542 (Selleckchem, cat. S1067), and 10 nM gastrin (Tocris Bioscience, cat. 3006). […]

[1] = second compound 0.0316 µM, first compound 0.0316 µM
[2] = second compound 0.0316 µM, first compound 0.1 µM
[3] = second compound 0.0316 µM, first compound 0.316 µM
[4] = second compound 0.0316 µM, first compound 1 µM
[5] = second compound 0.0316 µM, first compound 3.16 µM
[6] = second compound 0.0316 µM, first compound 10 µM
[7] = second compound 0.1 µM, first compound 0.0316 µM
[8] = second compound 0.1 µM, first compound 0.1 µM
[9] = second compound 0.1 µM, first compound 0.316 µM
[10] = second compound 0.1 µM, first compound 1 µM
[11] = second compound 0.1 µM, first compound 3.16 µM
[12] = second compound 0.1 µM, first compound 10 µM
[13] = second compound 0.316 µM, first compound 0.0316 µM
[14] = second compound 0.316 µM, first compound 0.1 µM
[15] = second compound 0.316 µM, first compound 0.316 µM
[16] = second compound 0.316 µM, first compound 1 µM
[17] = second compound 0.316 µM, first compound 3.16 µM
[18] = second compound 0.316 µM, first compound 10 µM
[19] = second compound 1 µM, first compound 0.0316 µM
[20] = second compound 1 µM, first compound 0.1 µM
[21] = second compound 1 µM, first compound 0.316 µM
[22] = second compound 1 µM, first compound 1 µM
[23] = second compound 1 µM, first compound 3.16 µM
[24] = second compound 1 µM, first compound 10 µM
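Further: spheroids exposed to compounds for seven days before readout.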

With `CC(=O)OC12COC1CC(O)C1(C)C(=O)C(O)C3=C(C)C(OC(=O)C(O)C(NC(=O)OC(C)(C)C)c4ccccc4)CC(O)(C(OC(=O)c4ccccc4)C21)C3(C)C` (centres undefined) + C=CC(=O)N1CCN(c2nc(OCC3CCCN3C)nc3c(F)c(-c4nc(N)cc(C)c4C(F)(F)F)c(Cl)cc23)C(C)C1 the pIC50 (second compound 0.00316 µM) was > 7.50, the pIC50 (second compound 0.01 µM) was > 7.50 and the pIC50 (second compound 0.0316 µM) was > 7.50. The pIC50 (second compound 0.1 µM) was > 7.50, the pIC50 (second compound 0.316 µM) was > 7.50 and the pIC50 (second compound 1 µM) was > 7.50. For the same molecule, the viability, T/C (second compound 0.00316 µM, first compound 0.0316 µM) was 9.92%, the viability, T/C (second compound 0.00316 µM, first compound 0.1 µM) was 11.3% and the viability, T/C (second compound 0.00316 µM, first compound 0.316 µM) was 8.82%. For the same molecule, the viability, T/C (second compound 0.00316 µM, first compound 1 µM) was 12.3%, the viability, T/C (second compound 0.00316 µM, first compound 3.16 µM) was 11.7% and the viability, T/C (second compound 0.00316 µM, first compound 10 µM) was 14.2%. It also gave a viability, T/C (second compound 0.01 µM, first compound 0.0316 µM) of 8.32%, a viability, T/C (second compound 0.01 µM, first compound 0.1 µM) of 8.59% and a viability, T/C (second compound 0.01 µM, first compound 0.316 µM) of 9.28%. For the same molecule, the viability, T/C (second compound 0.01 µM, first compound 1 µM) was 10.8%, the viability, T/C (second compound 0.01 µM, first compound 3.16 µM) was 14.4% and the viability, T/C (second compound 0.01 µM, first compound 10 µM) was 11.4%. The viability, T/C [1] was 8.72%, the viability, T/C [2] was 8.61% and the viability, T/C [3] was 9.75%. It also gave a viability, T/C [4] of 12.3%, a viability, T/C [5] of 13.2% and a viability, T/C [6] of 14%. The viability, T/C [7] was 9.31%, the viability, T/C [8] was 9.36% and the viability, T/C [9] was 9.95%. For the same molecule, the viability, T/C [10] was 12.9%, the viability, T/C [11] was 12.4% and the viability, T/C [12] was 9.63%. For the same molecule, the viability, T/C [13] was 9.62%, the viability, T/C [14] was 7.81% and the viability, T/C [15] was 8.61%. It also gave a viability, T/C [16] of 10.3%, a viability, T/C [17] of 13.6% and a viability, T/C [18] of 14.5%. It also gave a viability, T/C [19] of 9.06%, a viability, T/C [20] of 11.8% and a viability, T/C [21] of 13.3%. The viability, T/C [22] was 12.9%, the viability, T/C [23] was 12.3% and the viability, T/C [24] was 14.5%.

For `CCC(CC)c1cc(NC2CCC(N)C2)n2nccc2n1` (centres undefined) + C#Cc1c(F)ccc2cc(O)cc(-c3ncc4c(N5CC6CCC(C5)N6)nc(OCC56CCCN5CC(F)C6)nc4c3F)c12, the pIC50 (second compound 0.0316 µM) was > 7.50, the pIC50 (second compound 0.1 µM) was > 7.50 and the pIC50 (second compound 0.316 µM) was > 7.50. For the same molecule, the pIC50 (second compound 1 µM) was > 7.50, the pIC50 (second compound 3.16 µM) was > 7.50 and the pIC50 (second compound 10 µM) was > 7.50. It also gave a viability, T/C [1] of 27.3%, a viability, T/C [2] of 24.2% and a viability, T/C [3] of 22.7%. It also gave a viability, T/C [4] of 16%, a viability, T/C [5] of 1.58% and a viability, T/C [6] of 5.35%. It also gave a viability, T/C [7] of 10.8%, a viability, T/C [8] of 12.2% and a viability, T/C [9] of 7.8%. For the same molecule, the viability, T/C [10] was 9.56%, the viability, T/C [11] was 1.88% and the viability, T/C [12] was 5.23%. It also gave a viability, T/C [13] of 5.57%, a viability, T/C [14] of 5.89% and a viability, T/C [15] of 4.79%. It also gave a viability, T/C [16] of 4.23%, a viability, T/C [17] of 1.7% and a viability, T/C [18] of 5.13%. It also gave a viability, T/C [19] of 3.15%, a viability, T/C [20] of 3.52% and a viability, T/C [21] of 2.78%. The viability, T/C [22] was 3.71%, the viability, T/C [23] was 2.1% and the viability, T/C [24] was 6.67%. It also gave a viability, T/C (second compound 3.16 µM, first compound 0.0316 µM) of 2.7%, a viability, T/C (second compound 3.16 µM, first compound 0.1 µM) of 2.53% and a viability, T/C (second compound 3.16 µM, first compound 0.316 µM) of 2.14%. For the same molecule, the viability, T/C (second compound 3.16 µM, first compound 1 µM) was 2.51%, the viability, T/C (second compound 3.16 µM, first compound 3.16 µM) was 1.88% and the viability, T/C (second compound 3.16 µM, first compound 10 µM) was 6.5%. The viability, T/C (second compound 10 µM, first compound 0.0316 µM) was 1.53%, the viability, T/C (second compound 10 µM, first compound 0.1 µM) was 1.24% and the viability, T/C (second compound 10 µM, first compound 0.316 µM) was 1.12%. For the same molecule, the viability, T/C (second compound 10 µM, first compound 1 µM) was 1.66%, the viability, T/C (second compound 10 µM, first compound 3.16 µM) was 1.33% and the viability, T/C (second compound 10 µM, first compound 10 µM) was 3.5%.
